Assay: Rapid in vitro release testing of ibuprofen gel by UV/VIS area imaging
Assay type: in vitro ADME
Conditions: calculated comparison value; extinction coefficient 1.5 dm^3 g^−1 cm^−1
Text: Measurements were made by switching the LED source of UV irradiation 51 and the LED source of VIS irradiation 52 and imaging at a frame rate of 2 Hz. […] Imaging is typically carried out alternately at a first wavelength where the API absorbs light (280 or 255 nm) and a second wavelength where there is no absorption (505 nm). […] The sample assembly 20 further comprises a fused silica elongate cuvette 22 which is cuboidal and open at the upper end with a width of 7 mm, a depth of 4 mm and a wall thickness of 1 mm. […] The fused silica elongate cuvette 22 is inserted vertically inside the elongate receptor cell 24 and is capped at a lower end with a membrane 21 which is glued in place. […] The sample assembly 20 further comprises an elongate substantially planar holder 30 for the API formulation 13 (the donor phase) which is slidably inserted in the fused silica elongate cuvette 22. The elongate substantially planar holder 30 projects beyond an upper end 22a of the fused silica elongate cuvette 22 to facilitate removal. […] The vertical bar (z direction) was used for measurement of the absorbance profiles spanning the donor phase, the membrane and the receptor phase (see FIGS. 3B to D).

Compound: CC(C)Cc1ccc(C(C)C(=O)O)cc1 (stereo not shown) [ibuprofen]
- Depletion value of the donor phase calculated from path length, ibuprofen concentration in the gel and literature extinction coefficient: −1.5 AU

Source: patent US9891156B2, “Method for determining the permeation of a permeant through a membrane” (Paraytec Limited, priority 2014, dated 2018)
